Results as given in patent publication US11045480B2, “Anti-huLRRC15 antibody drug conjugates and methods for their use” (AbbVie Inc., priority 2015, dated 2021).

Columns and labels:
[1] = tested on: MC-38 mouse colorectal cancer; experiment: MC-38 syngeneic tumor growth; format: in vivo
Description: MC-38 mouse colorectal cancer cells (250,000) were implanted subcutaneously into C57BL/6 mice, and mice were randomized when the tumors reached ˜100 mm^3 and dosed with isotype antibodies or ADCs at 12 mg/kg intraperitoneally on a Q4D×6 (one dose given every 4 days for a total of 6 doses), while the anti-PD-1 antibody (“Anti-PD1 mAb”) was dosed intraperitoneally at 2 mg/kg Q4D×6 (one dose given every 4 days for a total of 6 doses).

[2] = tested on: EBC-1 (human squamous NSCLC) xenograft; experiment: EBC-1 xenograft tumor growth; format: in vivo, mouse; conditions: EBC-1, SCID/Beige mice; huM25-vcMMAE-E2 at 3 mg/kg (method: biologics 6 mg/kg IP Q7D×2); method: gemcitabine 100 mg/kg IP Q3D×3, result sentence names docetaxel (FIG. 21B)
[3] = tested on: EBC-1 (human squamous NSCLC) xenograft; experiment: EBC-1 xenograft tumor growth; format: in vivo, mouse
Description: For the experiments, five million cells (EBC-1) that were grown in vitro were inoculated subcutaneously per mouse into the right flank of female SCID-Beige mice. Tumors were size matched at ˜200 mm^3, and dosed intraperitoneally (IP) Q4D×6 (1 dose given every 4 days for a total of 6 doses) as shown in FIG. 13A. Measurements of the length (L) and width (W) of the tumors were taken via electronic caliper and the volume was calculated according to the following equation: V=L×W^2/2.
For this experiment, tumors were size matched at ˜200 mm^3, and dosed intraperitoneally (IP) Q7D×2 (1 dose given every 7 days for a total of 2 doses) as shown in FIG. 13C. […]
5 million cells were implanted subcutaneously into SCID/Beige mice, and mice were randomized when tumor group mean volumes reached ˜200 mm^3.
In FIG. 20C, EBC1 cells (5 million) were implanted subcutaneously into SCID/Beige mice and mice were randomized when the tumors reached ˜200 mm^3 and dosed with biologics at 6 mg/kg intraperitoneally on a Q7D×2 (one dose given every 7 days for a total of 2 doses), while erlotinib was dosed orally daily for 10 days at 50 mg/kg, and carboplatin was dosed intraperitoneally Q4D×3 (one dose given every 4 days for a total of 3 doses) at 50 mg/kg.
In FIG. 21B, EBC-1 squamous NSCLC cells (5 million) were implanted subcutaneously into SCID/Beige mice, and mice were randomized when the tumors reached ˜200 mm^3 and dosed with biologics at 6 mg/kg intraperitoneally on a Q7D×2 (one dose given every 7 days for a total of 2 doses), while gemcitabine was dosed intraperitoneally at 100 mg/kg (Q3D×3) (one dose given every three days for 3 doses total).

[4] = tested on: HPAF-II (human pancreatic) xenograft; experiment: HPAF-II xenograft tumor growth; format: in vivo, mouse
Description: For the experiment, 1 million cells (HPAF-II) that were grown in vitro were inoculated subcutaneously per mouse into the right flank of female SCID-Beige mice. Tumors were size matched at ˜200 mm^3, and dosed intraperitoneally (IP) Q4D×6 (1 dose given every 4 days for a total of 6 doses) as shown in FIG. 13B.
In FIG. 21A, HPAF-II pancreatic cancer cells (1 million) were implanted subcutaneously into SCID mice, and mice were randomized when the tumors reached ˜200 mm^3 and dosed with biologics at 6 mg/kg intraperitoneally on a Q4D×6 (one dose given every 4 days for a total of 6 doses), while gemcitabine was dosed intraperitoneally at 100 mg/kg (Q3D×4)×2 (one dose given every three days for 4 doses per cycle, 2 cycles with 8 total doses given).

[5] = tested on: NCI-H1650 (NSCLC) xenograft; experiment: NCI-H1650 xenograft tumor growth; format: in vivo, mouse
Description: The potency of anti-huLRRC15 ADCs as compared to current standards of care was assessed in xenograft models with NCI-H1650 ([…]), HN5 (head and neck), EBC-1 (squamous NSCLC), NW231 (breast) and PANC1 (pancreatic) cancer cells. […] For FIG. 20A, NCI-H1650 cells (5 million cells) were implanted subcutaneously into SCID/Beige mice and tumors were randomized when they reached ˜200 mm^3 and dosed with biologics at 6 or 12 mg/kg intraperitoneally on a Q4D×6 (one dose given every 4 days for a total of 6 doses), while erlotinib was dosed orally daily for 10 days at 100 mg/kg, and carboplatin was dosed intraperitoneally Q4D×4 (one dose given every 4 days for a total of 4 doses) at 50 mg/kg.
NCI-H1650 NSCLC cancer cells (5 million) were implanted subcutaneously into SCID/Beige mice, and mice were randomized when the tumors reached ˜200 mm^3 and dosed with biologics at 6 or 12 mg/kg intraperitoneally on a Q4D×6 (one dose given every 4 days for a total of 6 doses), while erlotinib was dosed orally daily at 100 mg/kg for 10 doses.
NCI-H1650 NSCLC cancer cells (5 million) were implanted subcutaneously into SCID/Beige mice, and mice were randomized when the tumors reached ˜200 mm^3 and dosed on day 0 with isotype or ADC at 0.1, 0.3, or 0.6 mg/kg intraperitoneally.
NCI-H1650 adeno NSCLC cells (5 million) were implanted subcutaneously into SCID/Beige mice, and mice were randomized when the tumors reached ˜225 mm^3 and dosed with ADC at 0.6 mg/kg or isotype antibody at 12 mg/kg intraperitoneally once on day 0.

[6] = EBC1, SCID/Beige mice, biologics 6 mg/kg IP Q7D×2, erlotinib 50 mg/kg orally daily ×10, carboplatin 50 mg/kg IP Q4D×3 (FIG. 20C)
[7] = EBC-1, SCID-Beige mice, 6 mg/kg IP Q4D×6 (FIG. 13A)
[8] = EBC-1, ADC plus second agent of FIG. 21B (sentence: docetaxel; method and legend: gemcitabine)
[9] = ADC 6 mg/kg IP Q4D×6 plus gemcitabine 100 mg/kg IP (Q3D×4)×2 (FIG. 21A)
[10] = SCID mice, biologics 6 mg/kg IP Q4D×6, gemcitabine 100 mg/kg IP (Q3D×4)×2 (FIG. 21A)
[11] = SCID-Beige mice, 6 mg/kg IP Q4D×6 (FIG. 13B)
[12] = NCI-H1650, SCID/Beige mice, biologics 6 or 12 mg/kg IP Q4D×6, erlotinib 100 mg/kg orally daily ×10, carboplatin 50 mg/kg IP Q4D×4 (FIG. 20A, 22A)
[13] = NCI-H1650, ADC 6 or 12 mg/kg IP Q4D×6 plus erlotinib 100 mg/kg orally daily ×10 (FIG. 22A)

huM25-vcMMAE-E2: huM25 conjugated with maleimidocaproyl val-cit PABA MMAE, preparation enriched in DAR2 by HIC
single agent activity ([1]; MC-38, C57BL/6 mice, ADC 12 mg/kg IP Q4D×6 (FIG. 22C)): did not show single agent activity | TGImax, administered adjunctively with anti-PD-1 antibody ([1]; MC-38, ADC 12 mg/kg IP Q4D×6 plus anti-PD-1 antibody 2 mg/kg IP Q4D×6 (FIG. 22C)): 87% | TGImax, single agent [2]: 91% | TGD [3, 6]: 129% | TGImax [3, 6]: 92% | maximum tumor growth inhibition (TGImax) [3, 7]: 97% | tumor growth delay (TGD) [3, 7]: 305% | TGD, single agent ([3]; EBC-1, SCID/Beige mice, huM25-vcMMAE-E2 at 3 mg/kg (method: biologics 6 mg/kg IP Q7D×2), method: gemcitabine 100 mg/kg IP Q3D×3, result sentence names docetaxel (FIG. 21B)): 144% | TGD, used adjunctively [3, 8]: 348% | TGImax, used adjunctively [3, 8]: 98% | TGD, used adjunctively with gemcitabine [4, 9]: 183% | TGImax, used adjunctively with gemcitabine [4, 9]: 85% | TGD, single agent [4, 10]: 57% | TGImax, single agent [4, 10]: 57% | TGImax [4, 11]: 76% | tumor growth delay [4, 11]: 133% | TGD, single agent [5, 12]: 450% | TGImax, single agent [5, 12]: 92% | TGD, used adjunctively with erlotinib [5, 13]: > 538% | TGImax, used adjunctively with erlotinib [5, 13]: 92%
